Source: ChEMBL document CHEMBL1135798, “Structure-activity relationships of the antimalarial agent artemisinin. 6. The development of predictive in vitro potency models using CoMFA and HQSAR methodologies” (2002)

The compounds below were run on Plasmodium falciparum (assay: Antimalarial activity against chloroquine-resistant, mefloquine-sensitive Plasmodium falciparum W2).
Format: functional

In order of falling “Log RA” value:
1. COC(=O)[C@H](C)COC1O[C@@H]2O[C@@]3(C)CC[C@H]4[C@H](C)CC[C@@H]([C@H]1C)[C@@]24OO3 (stereo not given in full)  2.25
2. COC(=O)[C@@H](C)COC1O[C@@H]2O[C@@]3(C)CC[C@H]4[C@H](C)CC[C@@H]([C@H]1C)[C@@]24OO3 (stereo not given in full)  1.79
3. C[C@@H]1CC[C@H]2[C@@H](C)C(=O)N(CC=O)[C@@H]3O[C@@]4(C)CC[C@@H]1[C@@]23OO4  1.47
4. C[C@@H]1CC[C@H]2[C@@H](CCCc3ccccc3)CO[C@@H]3O[C@@]4(C)CC[C@@H]1[C@]32OO4  1.4
5. CCC[C@H]1C(=O)O[C@@H]2O[C@@]3(C)CC[C@H]4[C@H](C)CC[C@@H]1[C@@]24OO3  1.13
6. CCCC[C@H]1C(O)O[C@@H]2O[C@@]3(C)CC[C@H]4[C@H](C)CC[C@@H]1[C@@]24OO3 (stereo not given in full)  0.96
7. CCOC(=O)C[C@H](O[C@H]1O[C@@H]2O[C@@]3(C)CC[C@H]4[C@H](C)CC[C@@H]([C@H]1C)[C@@]24OO3)c1ccccc1  0.9
8. CCOC(=O)CC[C@@]12CC[C@H]3[C@H](C)CC[C@H]4CCO[C@H](O1)[C@]43OO2  0.7
9. C[C@@H]1CC[C@H]2CC(=O)N(C)[C@@H]3O[C@@]4(C)CC[C@@H]1[C@@]23OO4  0.7
10. C[C@@H]1CC[C@H]2[C@@H](C)C(=O)N(C)[C@@H]3O[C@@]4(C)CC[C@@H]1[C@@]23OO4  0.43
11. CCO[C@H]1O[C@@H]2O[C@@]3(C)CC[C@H]4C(C)[C@@H](O)C[C@@H]([C@H]1C)[C@@]24OO3 (stereo not given in full)  0.34
12. CCO[C@@H]1O[C@@H]2O[C@@]3(C)CC[C@H]4[C@H](C)CC[C@@H]([C@H]1C)[C@@]24OO3  0.32
13. CCC[C@@H](Cc1ccccc1)OC1O[C@@H]2O[C@@]3(C)CC[C@H]4[C@H](C)CC[C@@H]([C@H]1C)[C@@]24OO3 (stereo not given in full)  0.31
14. C[C@@H]1CC[C@H]2[C@@H](C)C(OCC3C4CC5CC(C4)CC3C5)O[C@@H]3O[C@@]4(C)CC[C@@H]1[C@]32OO4 (stereo not given in full)  0.28
15. COC(=O)c1ccc(C(=O)OCC[C@@H]2CCC[C@@H]3CC[C@@]4(C)OO[C@]32[C@@H](OC)O4)cc1  0.27
16. CCO[C@H]1O[C@@H]2O[C@@]3(C)CC[C@H]4C(C=O)CC[C@@H]([C@H]1C)[C@@]24OO3 (stereo not given in full)  0.21
17. C[C@@H]1CC[C@H]2[C@@H](C)C(=O)N(c3cccs3)[C@@H]3O[C@@]4(C)CC[C@@H]1[C@@]23OO4  0.17
18. CCCCC[C@H]1CO[C@@H]2O[C@@]3(C)CC[C@H]4[C@H](C)CC[C@@H]1[C@@]24OO3  0.16
19. C[C@@H]1CC[C@H]2CC(=O)N(CCc3ccccc3)[C@@H]3O[C@@]4(C)CC[C@@H]1[C@@]23OO4  0.16
20. C[C@H]1[C@@H](O[C@H](C)c2ccc(C(=O)O)cc2)O[C@@H]2O[C@@]3(C)CC[C@H]4[C@H](C)CC[C@@H]1[C@@]24OO3  0.12
21. C[C@@H]1CC[C@H]2[C@@H](C)C(=O)N(c3ccco3)[C@@H]3O[C@@]4(C)CC[C@@H]1[C@@]23OO4  0.11
22. C=CCN1C(=O)[C@H](C)[C@@H]2CC[C@@H](C)[C@@H]3CC[C@@]4(C)OO[C@]32[C@H]1O4  -0.04
23. CC(C)C[C@@]12CC[C@H]3[C@H](C)CC[C@H]4CC(=O)O[C@H](O1)[C@]43OO2  -0.35
24. C[C@@]12CC[C@H]3CCC[C@H]4CC(=O)O[C@H](O1)[C@@]34OO2  -0.36
25. CC(C)C[C@H]1C(=O)O[C@@H]2O[C@@]3(C)CC[C@H]4[C@H](C)CC[C@@H]1[C@@]24OO3  -0.55
26. C[C@@H]1CC[C@H]2CCO[C@@H]3O[C@@]4(CCCc5ccc(Cl)cc5)CC[C@@H]1[C@@]23OO4  -0.55
27. C[C@@H]1CC[C@@H]2[C@]34OO[C@](C)(CC[C@@H]13)O[C@H]4OC(O)[C@]21CO1 (stereo not given in full)  -0.57
28. CO[C@H]1O[C@@]2(C)CC[C@H]3CCC[C@@H](CCOC(=O)c4ccccc4)[C@]31OO2  -0.59
29. CO[C@H]1O[C@@]2(C)CC[C@H]3CCC[C@@H](CCOC(=O)c4ccc(C(=O)OCCN(C)C)cc4)[C@]31OO2  -0.6
30. C[C@@H]1CCC2[C@@H](C)C(=O)OC3OC(C)(C)OO[C@@]32[C@H]1C (stereo not given in full)  -0.86
31. C[C@@H]1CC[C@H]2[C@@H](C)CO[C@H]3C[C@]4(C)CC[C@@H]1[C@@]32OO4  -2.59
32. C[C@@H]1CC[C@H]2CC(=O)O[C@@H]3O[C@H]4CC[C@@H]1[C@@]23OO4  -2.76
33. C[C@@H]1CC[C@@H]2[C@]34OO[C@](C)(CC[C@@H]13)O[C@H]4OC(=O)[C@]21CO1  -4
34. CC(C)CC[C@H]1C(=O)O[C@@H]2O[C@@]3(C)CC[C@H]4[C@H](C)CC[C@@H]1[C@@]24O3  -4
35. C[C@H]1[C@@H](O)O[C@@H]2O[C@@]3(C)CC[C@H]4[C@H](C)CC[C@@H]1[C@@]24O3  -4
